According to patent US12427144B2, “Compounds and methods for the targeted degradation of androgen receptor” (Arvinas Operations, Inc., priority 2019, dated 2025):

Target: T1, Androgen Receptor (AR) (Homo sapiens, UniProt P10275)
T1 construct: endogenous in cells; host or cells: VCaP
T1 sequence (P10275 1-920): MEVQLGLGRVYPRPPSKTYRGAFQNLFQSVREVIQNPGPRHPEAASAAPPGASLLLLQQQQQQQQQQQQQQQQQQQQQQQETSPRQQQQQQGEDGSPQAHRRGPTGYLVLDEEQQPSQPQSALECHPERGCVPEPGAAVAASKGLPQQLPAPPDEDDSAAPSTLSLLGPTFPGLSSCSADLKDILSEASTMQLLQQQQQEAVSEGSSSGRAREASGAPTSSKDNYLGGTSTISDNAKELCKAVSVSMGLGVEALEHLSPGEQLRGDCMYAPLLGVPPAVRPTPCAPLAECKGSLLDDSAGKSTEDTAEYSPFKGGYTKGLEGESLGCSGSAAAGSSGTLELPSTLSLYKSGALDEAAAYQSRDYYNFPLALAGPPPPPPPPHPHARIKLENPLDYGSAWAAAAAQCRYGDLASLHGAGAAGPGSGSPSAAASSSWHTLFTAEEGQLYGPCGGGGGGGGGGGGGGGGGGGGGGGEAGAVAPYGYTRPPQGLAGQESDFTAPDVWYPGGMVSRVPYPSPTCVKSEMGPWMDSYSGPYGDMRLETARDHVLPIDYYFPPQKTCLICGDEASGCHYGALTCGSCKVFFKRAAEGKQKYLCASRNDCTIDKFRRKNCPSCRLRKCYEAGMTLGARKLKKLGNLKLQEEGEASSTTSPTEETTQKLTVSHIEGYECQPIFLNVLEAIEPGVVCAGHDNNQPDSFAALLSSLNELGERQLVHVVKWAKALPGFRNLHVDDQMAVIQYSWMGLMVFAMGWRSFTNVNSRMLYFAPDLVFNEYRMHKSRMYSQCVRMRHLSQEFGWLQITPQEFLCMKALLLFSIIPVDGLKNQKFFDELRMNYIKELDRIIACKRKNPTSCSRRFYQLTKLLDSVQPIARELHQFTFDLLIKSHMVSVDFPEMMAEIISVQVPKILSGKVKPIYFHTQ
Assay: AR immunofluorescence staining, high content imager, VCaP cells
Assay type: cell-based
Conditions: for DC50: AR degradation by immunofluorescence; for Dmax: maximal AR degradation
Experimental: AR Immunofluorescence Staining of Cells for the High Content Imager was performed as follows: Following treatment of the cells with compound (using the central 60 wells of a 96-well plate), media was removed by aspiration, followed by addition of 50 μL per well of 4% paraformaldehyde (PFA) in PBS supplemented with 2 mM MgCl2 and 2 mM CaCl2. Fixed cells were incubated at RT for 15 minutes. For particularly low adherence cell lines (e.g., VCaP), a 2× solution of 8% PFA was added directly to wells instead. Cells were washed once with 200 μL PBS/well. To permeabilize cells 50 μL/well of 0.1% Triton X-100 in PBS was added and incubated for 5 minutes. Cells were washed once with 200 μL PBSS/well. 100 μL/well of Licor Odyssey Blocking Buffer was added for 1 hour at 20° C. Wells were aspirated and AR antibody (1:1000 in Licor Odyssey blocking buffer; 50 μL/well; CST 5153s) was added. Plates were incubated overnight at 4° C. Plates were washed 3 times with 200 EL PBS/well. The appropriate secondary antibody was added (50 μL/well; diluted in Licor Odyssey blocking buffer) and incubated for 1 hour at RT in the dark as prepared below using Anti-rabbit FITC (1:5000; […]) and Phalloidin-Alexafluor 648 (1:500; […]). Cells were washed once with 200 μL PBS/well. 50 μL DAPI or Hoechst 33342 diluted 1:1000 in Licor Odyssey blocking buffer was added to the wells. Cells were washed 3 times with 200 μL PBS/well. The plates were covered with a clear plastic sealer and refrigerated in the dark until ready to analyze. The cells were analyzed using a Molecular Devices IXM high content imager and analyzed using Molecular Devices metaXpress software suite.

SMILES | DC50 | Dmax
COc1cc(O[C@H]2C(C)(C)[C@H](NC(=O)c3ccc(N4CCO[C@H](CN(C(C)C)[C@H]5C[C@@H](Oc6ccc(C(=O)N[C@H]7CCC(=O)NC7=O)c(F)c6)C5)C4)cc3)C2(C)C)ccc1C#N [Compound 43, 4-[(2R)-2-([isopropyl[(1r,3r)-3-(4-[[(3S)-2,6-dioxopiperidin-3-yl]carbamoyl]-3-fluorophenoxy)cyclobutyl]amino]methyl)morpholin-4-yl]-N-[(1r,3r)-3-(4-cyano-3-methoxyphenoxy)-2,2,4,4-tetramethylcyclobutyl]benzamide] | < 1 nM | ≥ 70%
COc1cc(O[C@H]2C(C)(C)[C@H](NC(=O)c3ccc(N4CCO[C@@H](CN(C(C)C)[C@H]5C[C@H](Oc6ccc(C(=O)N[C@H]7CCC(=O)NC7=O)c(F)c6)C5)C4)cc3)C2(C)C)ccc1C#N [Compound 44, 4-[(2S)-2-([isopropyl[(1R,3R)-3-(4-[[(3S)-2,6-dioxopiperidin-3-yl]carbamoyl]-3-fluorophenoxy)cyclobutyl]amino]methyl)morpholin-4-yl]-N-[(1R,3R)-3-(4-cyano-3-methoxyphenoxy)-2,2,4,4-tetramethylcyclobutyl]benzamide] | < 1 nM | ≥ 70%
COCCN(C[C@@H]1CN(c2ccc(C(=O)N[C@H]3C(C)(C)[C@H](Oc4cc(C)c(C#N)c(C)c4)C3(C)C)cc2)CCO1)[C@H]1C[C@@H](Oc2ccc(C(=O)N[C@H]3CCC(=O)NC3=O)c(F)c2)C1 [Compound 45, 4-[(2R)-2-{[(2-methoxyethyl)[(1r,3r)-3-(4-{[(3S)-2,6-dioxopiperidin-3-yl]carbamoyl}-3-fluorophenoxy)cyclobutyl]amino]methyl}morpholin-4-yl]-N-[(1r,3r)-3-(4-cyano-3,5-dimethylphenoxy)-2,2,4,4-tetramethylcyclobutyl]benzamide] | < 1 nM | ≥ 70%
Cc1cc(O[C@H]2C(C)(C)[C@H](NC(=O)c3ccc(N4CCC(CN5CCN(c6ccc(C(=O)N[C@H]7CCC(=O)NC7=O)cn6)CC5)CC4)cc3)C2(C)C)cc(C)c1C#N [Compound 46] | < 1 nM | ≥ 70%
Cc1cc(O[C@H]2C(C)(C)[C@H](NC(=O)c3ccc(N4CCO[C@H](CN(C(C)C)[C@H]5C[C@@H](Oc6ccc(C(=O)N[C@H]7CCC(=O)NC7=O)c(F)c6)C5)C4)cc3)C2(C)C)cc(C)c1C#N [Compound 47, 4-[(2R)-2-{[(propan-2-yl)[(1r,3r)-3-(4-{[(3S)-2,6-dioxopiperidin-3-yl]carbamoyl}-3-fluorophenoxy)cyclobutyl]amino]methyl}morpholin-4-yl]-N-[(1r,3r)-3-(4-cyano-3,5-dimethylphenoxy)-2,2,4,4-tetramethylcyclobutyl]benzamide] | < 1 nM | ≥ 70%
Cc1cc(O[C@H]2C(C)(C)[C@H](NC(=O)c3ccc(N4CCO[C@H](CN5CCN(c6ccc(C(=O)N[C@H]7CCC(=O)NC7=O)c(F)c6)CC5)C4)cc3)C2(C)C)cc(C)c1C#N [Compound 48, N-[(3S)-2,6-dioxopiperidin-3-yl]-2-fluoro-4-(4-{[(2R)-4-(4-{[(1r,3r)-3-(4-cyano-3,5-dimethylphenoxy)-2,2,4,4-tetramethylcyclobutyl]carbamoyl}phenyl)morpholin-2-yl]methyl}piperazin-1-yl)benzamide] | < 1 nM | ≥ 70%
COCCN(C[C@H]1CN(c2ccc(C(=O)N[C@H]3C(C)(C)[C@@H](Oc4ccc(C#N)c(OC)c4)C3(C)C)cc2)CCO1)[C@H]1C[C@H](Oc2ccc(C(=O)N[C@@H]3CCC(=O)NC3=O)c(F)c2)C1 [Compound 50, 4-[(2S)-2-{[(2-methoxyethyl)[(1r,3r)-3-(4-{[(3R)-2,6-dioxopiperidin-3-yl]carbamoyl}-3-fluorophenoxy)cyclobutyl]amino]methyl}morpholin-4-yl]-N-[(1r,3r)-3-(4-cyano-3-methoxyphenoxy)-2,2,4,4-tetramethylcyclobutyl]benzamide] | < 1 nM | ≥ 70%
COCCN(C[C@H]1CN(c2ccc(C(=O)N[C@H]3C(C)(C)[C@@H](Oc4cc(C)c(C#N)c(C)c4)C3(C)C)cc2)CCO1)[C@H]1C[C@H](Oc2ccc(C(=O)N[C@@H]3CCC(=O)NC3=O)c(F)c2)C1 [Compound 51, 4-[(2S)-2-{[(2-methoxyethyl)[(1r,3r)-3-(4-{[(3R)-2,6-dioxopiperidin-3-yl]carbamoyl}-3-fluorophenoxy)cyclobutyl]amino]methyl}morpholin-4-yl]-N-[(1r,3r)-3-(4-cyano-3,5-dimethylphenoxy)-2,2,4,4-tetramethylcyclobutyl]benzamide] | < 1 nM | ≥ 70%
Cc1cc(O[C@H]2C(C)(C)[C@H](NC(=O)c3ccc(N4CCO[C@@H](CN5CCN(c6ccc(C(=O)N[C@H]7CCC(=O)NC7=O)c(F)c6)CC5)C4)cc3)C2(C)C)cc(C)c1C#N [Compound 52, N-[(3S)-2,6-dioxopiperidin-3-yl]-2-fluoro-4-(4-{[(2S)-4-(4-{[(1r,3r)-3-(4-cyano-3,5-dimethylphenoxy)-2,2,4,4-tetramethylcyclobutyl]carbamoyl}phenyl)morpholin-2-yl]methyl}piperazin-1-yl)benzamide] | < 1 nM | ≥ 70%
COc1cc(O[C@H]2C[C@H](N3CCOC4(CCN(c5ccc(C(=O)N[C@H]6C(C)(C)[C@H](Oc7cc(C)c(C#N)c(C)c7)C6(C)C)cc5)CC4)C3)C2)ccc1C(=O)NC1CCC(=O)NC1=O (stereo partly shown) [Compound 53, N-(2,6-dioxopiperidin-3-yl)-2-methoxy-4-[(1r,3r)-3-[9-(4-{[(1r,3r)-3-(4-cyano-3,5-dimethylphenoxy)-2,2,4,4-tetramethylcyclobutyl]carbamoyl}phenyl)-1-oxa-4,9-diazaspiro[5.5]undecan-4-yl]cyclobutoxy]benzamide] | < 1 nM | ≥ 70%
COc1cc(O[C@H]2C(C)(C)[C@H](NC(=O)c3ccc(N4CCC(O[C@H]5C[C@H](Oc6ccc(C(=O)NC7CCC(=O)NC7=O)c(OC)c6)C5)CC4)cc3)C2(C)C)ccc1C#N (stereo partly shown) [Compound 54, N-[(1r,3r)-3-(4-cyano-3-methoxyphenoxy)-2,2,4,4-tetramethylcyclobutyl]-4-{4-[(1r,3r)-3-{4-[(2,6-dioxopiperidin-3-yl)carbamoyl]-3-methoxyphenoxy}cyclobutoxy]piperidin-1-yl}benzamide] | < 1 nM | ≥ 70%
COc1cc(O[C@H]2C[C@H](OC3CCN(c4ccc(C(=O)N[C@H]5C(C)(C)[C@H](Oc6cc(C)c(C#N)c(C)c6)C5(C)C)cc4)CC3)C2)ccc1C(=O)NC1CCC(=O)NC1=O (stereo partly shown) [Compound 55, N-(2,6-dioxopiperidin-3-yl)-2-methoxy-4-[(1r,3r)-3-{[1-(4-{[(1r,3r)-3-(4-cyano-3,5-dimethylphenoxy)-2,2,4,4-tetramethylcyclobutyl]carbamoyl}phenyl)piperidin-4-yl]oxy}cyclobutoxy]benzamide] | < 1 nM | ≥ 70%
COc1cc(C(=O)NC2CCC(=O)NC2=O)ccc1N1CCN(C[C@H]2CN(c3ccc(C(=O)N[C@H]4C(C)(C)[C@H](Oc5cc(C)c(C#N)c(C)c5)C4(C)C)cc3)CCO2)CC1 (stereo partly drawn) [Compound 56, N-(2,6-dioxopiperidin-3-yl)-3-methoxy-4-(4-{[(2S)-4-(4-{[(1r,3r)-3-(4-cyano-3,5-dimethylphenoxy)-2,2,4,4-tetramethylcyclobutyl]carbamoyl}phenyl)morpholin-2-yl]methyl}piperazin-1-yl)benzamide] | < 1 nM | ≥ 70%
COc1cc(O[C@H]2C(C)(C)[C@H](NC(=O)c3ccc(N4CCO[C@@H](CN5CCN(c6ccc(C(=O)NC7CCC(=O)NC7=O)cc6OC)CC5)C4)cc3)C2(C)C)ccc1C#N (stereo partly drawn) [Compound 57, N-(2,6-dioxopiperidin-3-yl)-3-methoxy-4-(4-{[(2S)-4-(4-{[(1r,3r)-3-(4-cyano-3-methoxyphenoxy)-2,2,4,4-tetramethylcyclobutyl]carbamoyl}phenyl)morpholin-2-yl]methyl}piperazin-1-yl)benzamide] | < 1 nM | ≥ 70%
